Test results from PMC6681697, “One-Step ^18F-Labeling and Preclinical Evaluation of Prostate-Specific Membrane Antigen Trifluoroborate Probes for Cancer Imaging” (Journal of Nuclear Medicine, 2019).
One block for each compound: values may come before it.

Columns and labels:
PSMA = biological target: T1, PSMA (Homo sapiens, UniProt Q04609); assay: In vitro competition binding assay on LNCaP cells with ^18F-DCFPyL as radioligand
T1 construct: because it expresses PSMA endogenously and is commonly used to evaluate PSMA-targeting radiotracers; endogenous in cells; host or cells: LNCaP cells
Method: LNCaP cells were plated onto a 24-well poly-D-lysine coated plate for 48 h (400,000/well). […] Nonspecific binding was determined in the presence of 10 μM unlabeled DCFPyL. The assay mixtures were incubated for 1 h at 37°C with gentle agitation followed by 2 washes with cold HEPES buffered saline. A trypsin solution (0.25%, 400 μL) was then added to each well to harvest the cells. Radioactivity was measured by γ-counting, and Ki values were calculated using the “1 site—fit Ki” built-in model in Prism 7 (GraphPad).

[1] = Distribution coefficient (LogD7.4), shake flask method; assay type: physicochemical; settings: n-octanol / phosphate buffer 0.1 M pH 7.4; n = 3
Method: LogD7.4 values were measured using the shake flask method. Briefly, an aliquot of ^18F-labeled tracer was added to a vial containing 2.5 mL of n-octanol and 2.5 mL of phosphate buffer (0.1 M, pH 7.4). The mixture was vortexed for 2 min and then centrifuged at 3,000g for 10 min. A sample of the n-octanol (0.1 mL) and buffer (0.1 mL) layers was counted using a γ-counter. Values of LogD7.4 were calculated using the following equation: LogD7.4 = log10 [(counts in n-octanol phase)/(counts in buffer phase)].

LNCaP xenografts = assay: Ex vivo biodistribution and blocking studies in mice bearing LNCaP xenografts; settings: for tumor uptake: LNCaP tumor
Method: Imaging and biodistribution experiments were performed using NODSCID IL2RγKO male mice. All experiments were conducted according to the guidelines established by the Canadian Council on Animal Care and approved by the Animal Ethics Committee of the University of British Columbia. Mice were anesthetized by inhalation with 2% isoflurane in oxygen and implanted subcutaneously with 1 × 10^7 LNCaP cells behind the left shoulder. The mice were imaged or used in biodistribution studies once the tumor reached 5–8 mm in diameter (5–6 wk).
For biodistribution and blocking studies, the mice were injected with 1–3 MBq of radiotracer. At 60 min, the mice were anesthetized with 2% isoflurane inhalation and euthanized by CO2 inhalation. Blood was withdrawn by cardiac puncture, and the organs and tissues of interest were collected, weighed, and counted using an automatic γ-counter (PerkinElmer). Uptake values were expressed as the percentage of the injected dose per gram of tissue (%ID/g).
A standard 1-way ANOVA was performed to determine whether statistically significant differences in tumor uptake occurred between radiotracers. Each radiotracer was compared with ^18F-DCFPyL using the Dunnett test (a many-to-one t test comparison). This analysis was also performed for kidney and blood activity and for tumor-to-blood and tumor-to-muscle ratios. Reported P values were adjusted for multiple comparisons. The analysis was performed using Prism 8 (GraphPad). […]
Statistical analyses were performed using GradPad prism 7. Multiple t tests were performed to compare biodistribution in unblocked and blocked mice, multiple comparisons were corrected using the Holm-Sidak method. The difference was considered statistically significant when p value was < 0.05.
Supplemental Table 1 – Complete biodistribution study for compounds [18F]1–3 […]
Tissue 1h 1h blocked 1h 1h blocked 1h 1h blocked
(%ID/g) n = 8 n = 4 n = 6 n = 4 n = 8 n = 5 […]
(1 picture or pasted object on this page, not shown here)

[2] = 1 h after injection, 1-way ANOVA, Dunnett test
[3] = 1 h blocked (coinjection of DCFPyL 0.5 mg)

T1 sequence (Q04609 whole entry): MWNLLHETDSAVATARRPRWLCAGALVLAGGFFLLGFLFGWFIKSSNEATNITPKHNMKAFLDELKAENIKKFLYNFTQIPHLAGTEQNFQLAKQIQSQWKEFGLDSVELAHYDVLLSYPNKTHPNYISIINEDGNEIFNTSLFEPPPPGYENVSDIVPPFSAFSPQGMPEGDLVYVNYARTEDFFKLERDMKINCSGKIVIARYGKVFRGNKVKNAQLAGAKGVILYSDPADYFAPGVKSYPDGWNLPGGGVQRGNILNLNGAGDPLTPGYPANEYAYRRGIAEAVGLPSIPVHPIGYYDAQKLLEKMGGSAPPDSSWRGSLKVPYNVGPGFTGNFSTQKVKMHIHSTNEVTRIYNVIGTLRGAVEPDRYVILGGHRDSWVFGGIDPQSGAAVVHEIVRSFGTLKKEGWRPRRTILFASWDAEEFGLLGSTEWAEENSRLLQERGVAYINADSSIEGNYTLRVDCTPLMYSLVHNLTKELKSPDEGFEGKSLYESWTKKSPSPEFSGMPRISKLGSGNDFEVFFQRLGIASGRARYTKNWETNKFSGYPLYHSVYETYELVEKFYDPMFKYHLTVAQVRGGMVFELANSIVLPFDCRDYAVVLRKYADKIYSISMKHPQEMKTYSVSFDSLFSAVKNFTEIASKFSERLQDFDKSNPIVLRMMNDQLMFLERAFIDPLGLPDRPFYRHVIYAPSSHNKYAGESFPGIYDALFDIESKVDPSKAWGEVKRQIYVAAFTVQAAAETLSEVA

Ki (PSMA): 25.9 ± 5.7 nM | logD at 2 min [1]: -4.01 ± 0.14 | T/B (tumor-to-blood ratio) (LNCaP xenografts; 1 h after injection, unblocked): 9.68 ± 4.53 | T/K (tumor-to-kidney ratio) (LNCaP xenografts; 1 h after injection, unblocked): 0.11 ± 0.08 | T/M (tumor-to-muscle ratio) (LNCaP xenografts; 1 h after injection, unblocked): 29.00 ± 12.40 | adrenal uptake (LNCaP xenografts; 1 h after injection, unblocked): 1.35 ± 0.52 %ID/g | blood uptake (LNCaP xenografts; 1 h after injection, unblocked): 0.50 ± 0.16 %ID/g | bone uptake (LNCaP xenografts; 1 h after injection, unblocked): 0.20 ± 0.06 %ID/g | brain uptake (LNCaP xenografts; 1 h after injection, unblocked): 0.03 ± 0.01 %ID/g | fat uptake (LNCaP xenografts; 1 h after injection, unblocked): 0.35 ± 0.15 %ID/g | heart uptake (LNCaP xenografts; 1 h after injection, unblocked): 0.19 ± 0.07 %ID/g | intestine uptake (LNCaP xenografts; 1 h after injection, unblocked): 0.28 ± 0.07 %ID/g | kidney uptake (LNCaP xenografts; 1 h after injection, unblocked): 51.80 ± 24.10 %ID/g | liver uptake (LNCaP xenografts; 1 h after injection, unblocked): 1.17 ± 0.28 %ID/g | lung uptake (LNCaP xenografts; 1 h after injection, unblocked): 0.66 ± 0.19 %ID/g | muscle uptake (LNCaP xenografts; 1 h after injection, unblocked): 0.17 ± 0.07 %ID/g | pancreas uptake (LNCaP xenografts; 1 h after injection, unblocked): 0.27 ± 0.13 %ID/g | spleen uptake (LNCaP xenografts; 1 h after injection, unblocked): 0.84 ± 0.52 %ID/g | stomach uptake (LNCaP xenografts; 1 h after injection, unblocked): 0.08 ± 0.04 %ID/g | testes uptake (LNCaP xenografts; 1 h after injection, unblocked): 0.30 ± 0.09 %ID/g | kidney accumulation compared with ^18F-DCFPyL (LNCaP xenografts; [2]): lower kidney accumulation | tumor uptake compared with ^18F-DCFPyL (LNCaP xenografts; [2]): lower tumor uptake than ^18F-DCFPyL | T/B (tumor-to-blood ratio) (LNCaP xenografts; [3]): 1.17 ± 0.70 | T/K (tumor-to-kidney ratio) (LNCaP xenografts; [3]): 0.16 ± 0.05 | T/M (tumor-to-muscle ratio) (LNCaP xenografts; [3]): 3.54 ± 1.43 | adrenal uptake (LNCaP xenografts; [3]): 0.24 ± 0.07 %ID/g | blood uptake (LNCaP xenografts; [3]): 0.30 ± 0.10 %ID/g | bone uptake (LNCaP xenografts; [3]): 0.16 ± 0.06 %ID/g | brain uptake (LNCaP xenografts; [3]): 0.02 ± 0.00 %ID/g | fat uptake (LNCaP xenografts; [3]): 0.16 ± 0.10 %ID/g | heart uptake (LNCaP xenografts; [3]): 0.12 ± 0.06 %ID/g | intestine uptake (LNCaP xenografts; [3]): 0.23 ± 0.06 %ID/g | kidney uptake (LNCaP xenografts; [3]): 2.12 ± 0.73 %ID/g | liver uptake (LNCaP xenografts; [3]): 1.25 ± 0.17 %ID/g | lung uptake (LNCaP xenografts; [3]): 0.30 ± 0.11 %ID/g | muscle uptake (LNCaP xenografts; [3]): 0.09 ± 0.03 %ID/g | pancreas uptake (LNCaP xenografts; [3]): 0.08 ± 0.03 %ID/g | spleen uptake (LNCaP xenografts; [3]): 0.09 ± 0.05 %ID/g | stomach uptake (LNCaP xenografts; [3]): 0.06 ± 0.02 %ID/g | testes uptake (LNCaP xenografts; [3]): 0.10 ± 0.03 %ID/g | tumor uptake (LNCaP xenografts; 1 h after injection, unblocked, listed as 3): 4.4 ± 0.95 %ID/g | tumor uptake (LNCaP xenografts; 1 h after injection, unblocked, listed as [18F]3): 4.36 ± 0.95 %ID/g | tumor uptake (LNCaP xenografts; [3]): 0.35 ± 0.21 %ID/g
Compound: C[N+](C)(Cc1cn(Cc2ccc(C(=O)NCCCC[C@H](NC(=O)N[C@@H](CCC(=O)O)C(=O)O)C(=O)O)cn2)nn1)C[B-](F)(F)F [^18F-3]

Compound: O=C(O)CCC(NC(=O)NC(CCCCNC(=O)c1ccc([18F])nc1)C(=O)O)C(=O)O (stereo not drawn) [^18F-DCFPyL, 2-(3-{1-carboxy-5-[(6-[^18F]fluoro-pyridine-3-carbonyl)-amino]-pentyl}-ureido)-pentanedioic acid, reference compound]
logD at 2 min [1]: -3.12 ± 0.22 | adrenal uptake (LNCaP xenografts; 1 h after injection, unblocked): 3.02 ± 2.14 %ID/g | blood uptake (LNCaP xenografts; 1 h after injection, unblocked): 0.60 ± 0.13 %ID/g | bone uptake (LNCaP xenografts; 1 h after injection, unblocked): 0.33 ± 0.07 %ID/g | brain uptake (LNCaP xenografts; 1 h after injection, unblocked): 0.03 ± 0.01 %ID/g | fat uptake (LNCaP xenografts; 1 h after injection, unblocked): 1.05 ± 0.64 %ID/g | heart uptake (LNCaP xenografts; 1 h after injection, unblocked): 0.35 ± 0.12 %ID/g | intestine uptake (LNCaP xenografts; 1 h after injection, unblocked): 0.33 ± 0.07 %ID/g | kidney uptake (LNCaP xenografts; 1 h after injection, unblocked): 123.76 ± 37.67 %ID/g | liver uptake (LNCaP xenografts; 1 h after injection, unblocked): 1.82 ± 0.24 %ID/g | lung uptake (LNCaP xenografts; 1 h after injection, unblocked): 1.62 ± 0.68 %ID/g | muscle uptake (LNCaP xenografts; 1 h after injection, unblocked): 0.29 ± 0.12 %ID/g | pancreas uptake (LNCaP xenografts; 1 h after injection, unblocked): 0.58 ± 0.32 %ID/g | spleen uptake (LNCaP xenografts; 1 h after injection, unblocked): 3.98 ± 2.35 %ID/g | stomach uptake (LNCaP xenografts; 1 h after injection, unblocked): 0.12 ± 0.03 %ID/g | testes uptake (LNCaP xenografts; 1 h after injection, unblocked): 0.57 ± 0.21 %ID/g | tumor uptake (LNCaP xenografts; 1 h after injection, unblocked): 11.64 ± 3.52 %ID/g
